≈ marks a conversion by molar mass, not a printed value. Where “and” joins values, the source holds several entries; their conditions need not be identical. Equal entries are not always repeated. Where two headings read alike, the source gives them in different places.
How the values were obtained:
[1] = tested on: Staphylococcus aureus CMX 503A; experiment: In-vitro antimicrobial activity primary screen (agar dilution MIC); format: cell-based; details: BHI agar, 20-24 h
How it was run: (§1)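 MIC is read as the lowest compound level yielding no growth, slight haze or sparse colonies on the inoculum spot, relative to a drug-free plate. Strains were replicator-inoculated (1:100 dilution) onto BHI agar plates holding twelve dilutions and held at 35-37 °C for 20-24 h, with erythromycin A as comparator.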

[2] = tested on: Staphylococcus aureus CMX 553; experiment: as above; format: cell-based; details: BHI agar, 20-24 h
How it was run: as §1

[3] = tested on: Staphylococcus aureus CMX 686B; experiment: as above; format: cell-based; details: CMX686B, BHI agar, 20-24 h, read-out: MIC
How it was run: as §1

[4] = tested on: Staphylococcus aureus (NCTC 10649); experiment: In-vivo acute mouse protection assay; parameters: species or system Staphylococcus aureus; female Swiss albino mice; details: dosed 1 and 5 h post-infection, observed 7 days
Experimental: (§2) An acute mouse protection test was conducted on ten mice with each of three concentrations of selected compounds of the invention. Each concentration was a four-fold dilution of the previous concentration. The initial concentration will vary with the microorganism with which the mouse is challenged.
(§3) The acute mouse protection test was conducted on female, Swiss albino mice, 18-20 grams in weight. […] To check the potency of the inoculum, a titration of the indicated test organism was carried out in control animals. The titration determines the LD50 for a particular microorganism. The treatment groups of animals were dosed orally, by gavage, or subcutaneously with the test compounds at 1 and 5 hours post-infection and observed for 7 days. The ED50 were calculated using the mortality data collected.

[5] = tested on: Haemophilus influenzae (ATCC 43095); experiment: In-vivo acute mouse protection assay; parameters: species or system Haemophilus influenzae; female Swiss albino mice; details: dosed 1 and 5 h post-infection, observed 7 days
Experimental: as §2, §3

Escherichia coli JUHL = experiment: In-vitro antimicrobial activity primary screen (agar dilution MIC); format: cell-based; details: Escherichia coli JUHL, BHI agar, 20-24 h
How it was run: (§4)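 MIC read after 20-24 hours at 35 37° C as the lowest compound level with no growth, only haze or sparse colonies relative to drug-free growth control. Plates were BHI agar carrying serial compound dilutions, replicator-inoculated at 1:100, or 1:10 for slow-growing strains.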

[6] = tested on: Haemophilus influenzae ATCC 43095; experiment: Treatment of induced otitis media in gerbils; format: in vivo, Haemophilus influenzae; female mongolian gerbils; details: read-out: ED50 (dose required to reduce CFUs by 90%)
Experimental: The effectiveness of one of the compounds of the present invention in treating otitis media was examined as desribed below. A five hour log phase culture of Haemophilus influenzae ATCC 43095 was prepared in brain heart infusion broth (BHIB) supplemented with 4% Fildes enrichment and 0.001% nicotinamide adenine dinucleotide (NAD; commerically available from Sigma Chemical Co., St. Louis, Missouri).
Immediately prior to treatment with the test compounds, middle ear aspirates from five gerbils were obtained as described below and cultured to determine the level of infection at the onset of therapy. The test compounds produced by Example 19, (9S,11S)-11-Amino-9-deoxo-11,12-deoxy-9,12-epoxyerythromycin A, was administered orally by gavage in a 0.5 mL volume beginning 17 hours post infection and continuing three times daily for two days to groups of five gerbils. As a standard, a second group of gerbils was similarly treated using erythromycin. Eighteen hours after the final treatment, the gerbils were euthanized, 0.02 mL of BHIB injected into the middle ear bulla through the tympanic membrane, and middle ear aspirates collected and cultured.
The aspirates were diluted in BHIB and plated in duplicate onto chocolate agar. Colonies were counted after overnight incubation, and bacterial counts were expressed as colony forming units (CFUs) per middle ear. […]

in vivo = details: dog, iv, 10 mg/kg, t1/2 (biological half life), microbiological assay
Experimental: Selected compounds of the present invention were formulated as solutions in dilute lactobionic acid at a concentration of 10 or 20 mg/ml. Groups of two or three dogs were given a 10 mg macrolide/kg intravenous bolus or oral dose (by gavage). Plasma samples, obtained at selected time points from 15 minutes to 32 hours after dosing, were assayed using reverse phase HPLC with electrochemical detection (parent drug) and microbiological assay (total microbiological activity). Plasma concentration time curves were subjected to multi exponential curve fitting to determine terminal elimination half life values. Area under the curve (AUC) values, calculated by the trapezoidal method, were used to calculate absolute bioavailability.

[7] = tested on: Staphylococcus aureus NCTC 10649; experiment: In-vitro antimicrobial activity primary screen (agar dilution MIC); format: cell-based; details: BHI agar, 20-24 h
How it was run: as §4

[8] = tested on: Staphylococcus aureus 642A; experiment: as above; format: cell-based; details: BHI agar, 20-24 h
How it was run: as §4

[9] = Staphylococcus aureus, CMX503A, 24 h, read-out: MIC
[10] = Staphylococcus aureus, CMX553, 24 h, read-out: MIC
[11] = Staphylococcus aureus, NCTC10649, 168 h, oral, read-out: ED50
[12] = Staphylococcus aureus, NCTC10649, sc, 168 h, subcutaneous, read-out: ED50
[13] = ATCC43095, 168 h, oral, read-out: ED50

SMILES | MIC [1, 9] | MIC [2, 10] | MIC [3] | ED50 [4, 11] | ED50 [4, 12] | ED50 [5, 13] | MIC (Escherichia coli JUHL; Escherichia coli, 24 h) | MIC (Escherichia coli JUHL; read-out: MIC) | further results
CC[C@H]1OC(=O)[C@H](C)[C@@H](O[C@H]2C[C@@](C)(OC)[C@@H](O)[C@H](C)O2)[C@H](C)[C@@H](O[C@@H]2O[C@H](C)C[C@H](N(C)C)[C@H]2O)[C@](C)(O)C[C@@H](C)[C@@H]2O[C@@]1(C)[C@@H](O)[C@H]2C [Example 4, (9S,11S)-9-Deoxo-12-deoxy-9,12-epoxyerythromycin A] | 0.2 µg/mL (≈ 0.279 µM) | 0.2 µg/mL (≈ 0.279 µM) | 0.2 µg/mL (≈ 0.279 µM) | 55 mg/kg | 22.6 mg/kg | 238 mg/kg | 25 µg/mL (≈ 34.8 µM) |  | ED50 ([5]; ATCC43095, sc, 168 h, subcutaneous, read-out: ED50): 11.3 mg/kg
CC[C@H]1OC(=O)[C@H](C)[C@@H](O[C@H]2C[C@@](C)(OC)[C@@H](O)[C@H](C)O2)[C@H](C)[C@@H](O[C@@H]2O[C@H](C)C[C@H](N(C)C)[C@H]2O)[C@](C)(O)C[C@@H](C)[C@@H]2O[C@@]1(C)C(=O)[C@H]2C [Example 5, (9S)-9-Deoxo-11,12-dideoxy-9,12-epoxy-11-oxoerythromycin A] | 0.2 µg/mL (≈ 0.279 µM) | 0.1 µg/mL (≈ 0.14 µM) | 0.39 µg/mL (≈ 0.545 µM) | 25.2 mg/kg | 22.6 mg/kg |  |  | 100 µg/mL (≈ 140 µM) | 
CC[C@H]1OC(=O)[C@H](C)[C@@H](O[C@H]2C[C@@](C)(OC)[C@H](N)[C@H](C)O2)[C@H](C)[C@@H](O[C@@H]2O[C@H](C)C[C@H](N(C)C)[C@H]2O)[C@](C)(O)C[C@@H](C)[C@@H]2O[C@@]1(C)[C@@H](O)[C@H]2C [Example 13, (4"R,9S,11S) 4"-Amino-9-deoxo-4",12-dideoxy-9,12-epoxyerythromycin A] | 0.2 µg/mL (≈ 0.279 µM) | 0.2 µg/mL (≈ 0.279 µM) | 0.2 µg/mL (≈ 0.279 µM) | 126 mg/kg | 39.6 mg/kg |  | 50 µg/mL (≈ 69.7 µM) |  | 
CC[C@H]1OC(=O)[C@H](C)[C@@H](O[C@H]2C[C@@](C)(OC)[C@@H](O)[C@H](C)O2)[C@H](C)[C@@H](O[C@@H]2O[C@H](C)C[C@H](N(C)C)[C@H]2O)[C@](C)(O)C[C@@H](C)[C@@H]2O[C@@]1(C)[C@@H](N)[C@H]2C [Example 19, (9S,11S)-11-Amino-9-deoxo-11,12-deoxy-9,12-epoxyerythromycin A] | 0.2 µg/mL (≈ 0.279 µM) | 0.2 µg/mL (≈ 0.279 µM) | 0.2 µg/mL (≈ 0.279 µM) | 75.4 mg/kg | 20.7 mg/kg | 101 mg/kg |  | > 100 µg/mL | ED50 ([6]; ATCC43095, gerbil, oral gavage three times daily for two days from 17 h post infection): 46.5 mg/kg
CC[C@H]1OC(=O)[C@H](C)[C@@H](O[C@H]2C[C@@](C)(OC)[C@@H](O)[C@H](C)O2)[C@H](C)[C@@H](O[C@@H]2O[C@H](C)C[C@H](N(C)C)[C@H]2O)[C@](C)(O)C[C@@H](C)C(=O)[C@H](C)[C@@H](O)[C@]1(C)O [Std, Erythromycin A, reference compound] | 0.2 µg/mL (≈ 0.273 µM) | 0.2 µg/mL (≈ 0.273 µM) | 0.2 µg/mL (≈ 0.273 µM) |  |  |  | 25 µg/mL (≈ 34.1 µM) |  | MIC [1]: 0.1 microgram/mL; MIC [2]: 0.1 microgram/mL; ED50 ([6]; ATCC43095, po): > 300 mg/kg; ED50 ([4]; Staphylococcus aureus, NCTC10649, sc, 168 h, subcutaneous): 12.9 mg/kg; ED50 ([4]; subcutaneous, 10080 min): 8.3 mg/kg and 11.6 mg/kg; ED50 ([5]; ATCC43095, sc, 168 h, subcutaneous): 29.7 mg/kg; half-life (in vivo): 1.4 h; MIC [7]: 0.1 microgram/mL; MIC ([7]; Staphylococcus aureus, NCTC10649, 24 h): 0.2 µg/mL (≈ 0.273 µM); MIC [8]: 0.1 microgram/mL; MIC ([8]; Staphylococcus aureus, 642A, 24 h): 0.2 µg/mL (≈ 0.273 µM)

From patent US5288709A, “Erythromycin derivatives” (priority 1991, dated 1994)
